Test results published in patent US20040092475A1, “Organic compounds” (priority 2002, published 2004).
Where a name gives a salt, the structure may show the parent alone.

Experiments:
murine TRPC6 ion channel = target: T1, murine TRPC6 ion channel (Mus musculus, UniProt Q61143); conditions: Inoue et al, Circ. Res. (2001) 88: 325-332; cited from earlier work
T1 sequence (Q61143 1-930): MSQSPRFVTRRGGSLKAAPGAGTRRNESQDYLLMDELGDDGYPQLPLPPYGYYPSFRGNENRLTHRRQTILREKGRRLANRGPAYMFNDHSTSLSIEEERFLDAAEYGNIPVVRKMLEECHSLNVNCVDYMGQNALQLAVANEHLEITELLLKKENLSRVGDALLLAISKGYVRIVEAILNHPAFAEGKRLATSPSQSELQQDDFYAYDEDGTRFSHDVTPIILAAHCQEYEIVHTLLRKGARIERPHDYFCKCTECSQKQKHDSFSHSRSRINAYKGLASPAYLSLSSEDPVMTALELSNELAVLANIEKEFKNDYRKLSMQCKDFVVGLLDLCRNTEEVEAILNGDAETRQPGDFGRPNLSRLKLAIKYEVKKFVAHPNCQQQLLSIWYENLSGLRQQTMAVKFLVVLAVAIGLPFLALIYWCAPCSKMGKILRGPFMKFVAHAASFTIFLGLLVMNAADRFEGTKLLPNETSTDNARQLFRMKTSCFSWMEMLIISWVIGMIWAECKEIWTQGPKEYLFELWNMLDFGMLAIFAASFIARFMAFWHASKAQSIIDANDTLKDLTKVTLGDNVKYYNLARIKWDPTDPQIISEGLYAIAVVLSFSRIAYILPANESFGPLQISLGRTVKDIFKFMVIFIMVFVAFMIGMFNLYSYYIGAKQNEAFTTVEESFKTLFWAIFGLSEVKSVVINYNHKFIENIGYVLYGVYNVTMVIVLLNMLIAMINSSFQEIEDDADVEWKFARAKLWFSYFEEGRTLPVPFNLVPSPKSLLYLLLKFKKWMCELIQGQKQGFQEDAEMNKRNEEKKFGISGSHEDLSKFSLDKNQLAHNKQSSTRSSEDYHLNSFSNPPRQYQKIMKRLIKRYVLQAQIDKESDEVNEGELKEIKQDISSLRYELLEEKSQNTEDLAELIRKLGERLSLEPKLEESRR

[1] = tested on: receptor-mediated calcium entry (RMCE); conditions: Merritt et al, Biochem. J. (1990) 271: 515-522; cited from earlier work
human TRPC6 ion channel = target: T2, human TRPC6 ion channel (Homo sapiens, UniProt Q9Y210); test: FLIPR membrane potential assay, carbachol-stimulated TRPC6-expressing cells (TRPC6 clone 14); assay type: cell-based; conditions: for Mean fluorescence response calculated as (Max − Min)/Min: 10 min pre-treatment, n=10 wells, control 1.219
T2 construct: expressed in transfected cells; host or cells: TRPC6 clone 14 cells
T2 sequence (Q9Y210 1-931): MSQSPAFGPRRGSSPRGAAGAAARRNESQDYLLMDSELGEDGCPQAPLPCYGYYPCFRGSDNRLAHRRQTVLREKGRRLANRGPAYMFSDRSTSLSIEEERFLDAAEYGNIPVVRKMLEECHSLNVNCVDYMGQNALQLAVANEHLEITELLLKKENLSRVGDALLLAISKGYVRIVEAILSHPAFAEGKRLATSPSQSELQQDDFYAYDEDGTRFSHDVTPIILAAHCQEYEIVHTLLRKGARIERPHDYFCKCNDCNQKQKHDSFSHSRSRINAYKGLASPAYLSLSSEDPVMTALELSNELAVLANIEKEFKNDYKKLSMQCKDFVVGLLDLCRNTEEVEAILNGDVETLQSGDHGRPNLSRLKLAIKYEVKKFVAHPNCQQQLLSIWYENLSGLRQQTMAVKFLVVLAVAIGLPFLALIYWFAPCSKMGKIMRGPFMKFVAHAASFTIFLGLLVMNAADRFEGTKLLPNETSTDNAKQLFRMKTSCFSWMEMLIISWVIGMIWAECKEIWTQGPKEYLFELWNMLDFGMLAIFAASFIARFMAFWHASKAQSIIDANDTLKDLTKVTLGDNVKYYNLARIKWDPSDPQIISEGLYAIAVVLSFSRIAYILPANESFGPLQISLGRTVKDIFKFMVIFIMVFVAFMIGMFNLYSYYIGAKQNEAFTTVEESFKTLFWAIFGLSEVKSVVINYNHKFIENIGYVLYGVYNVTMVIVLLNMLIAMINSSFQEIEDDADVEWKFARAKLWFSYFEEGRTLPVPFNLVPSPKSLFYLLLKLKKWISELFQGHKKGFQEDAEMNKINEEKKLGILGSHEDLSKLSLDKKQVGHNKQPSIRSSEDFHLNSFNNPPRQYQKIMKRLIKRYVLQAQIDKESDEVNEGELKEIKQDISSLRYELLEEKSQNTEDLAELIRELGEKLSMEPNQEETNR
Method: In a suitable test for any inhibition of the TRPC6 channel, cells that express an endogenous G protein-coupled calcium mobilising receptor e.g. muscarinic acetylcholine receptor that can activate TRPC6 channels are used and a receptor agonist e.g. muscarinic acetylcholine receptor agonist is added to stimulate the TRPC6 channels. The cells are treated with the candidate substance prior to addition of the receptor agonist. That should produce an increase in fluorescence, but the magnitude of the increase will be reduced if the candidate substance inhibits the TRPC6 channels. Any change in fluorescence can be measured using suitable equipment, for example a fluorescence imaging plate reader.
An assay for screening candidate or test compounds is performed using cells stably-transfected with TRPC6 and expressing a functional TRPC6 channel e.g. the mammalian cell line HEK 293 which expresses an endogenous muscarinic acetylcholine receptor which can activate TRPC6 channels. […] The TRPC6-expressing cells are seeded in 96-well black-walled flat-bottomed microplates in a plating volume of 100 μl and grown to confluence for the assay. To prepare the cells for the assay, the cell culture medium is removed and 100 μl of loading buffer is added to each well. The loading buffer consists of FLIPR® membrane potential dye diluted to the required assay concentration in a buffer composed of 140 mM-NaCl, 0.15 mM CaCl2, 3.3 mM KH2PO4, 1.2 mM MgCl2, 10 mM D-glucose and 20 m M HEPES, at pH7.4 and containing 0.03 mM BAPTA-AM. The plates are incubated at 37° C. for 20 minutes prior to commencing the assay. For the detection of inhibitors of TRPC6, test agents are added to each well either before or after stimulation with the muscarinic acetylcholine receptor agonist carbachol, which activates the TRPC6 channel. The expected effect of an inhibitor would be to reduce the carbachol-stimulated increase in fluorescence. Activators of TRPC6 may be detected by substituting carbachol for a test agent, where activators will stimulate an increase in fluorescence.
TRPC6 clone 14 cells pre-treated with 1-[b-[3-(4-methoxyphenyl)propoxy]-4-methoxyphenethyl]-1H-imidazole.HCl for 10 minutes are stimulated with carbachol (10 μM) in accordance with the assay described in Example 2. The fluorescence is measured prior to carbachol addition (minimum response, i.e. Min.) and when the carbachol-stimulated increase in fluorescence has reached a maximum (maximum response, i.e. Max.). It can be seen in table 1 below that the reduced fluorescence responses are observed in compound treated-cells compared to the control response in the absence of compound.
The data is calculated as a (Max−Min)/Min response. Each concentration of 1-[b-[3-(4-methoxyphenyl)propoxy]-4-methoxyphenethyl]-1H-imidazole.HCl is the mean±SEM (standard error of the mean) of n=10 wells.

For COc1ccc(CCCOC(Cn2ccnc2)c2ccc(OC)cc2)cc1 (stereo not shown) [1-[b-[3-(4-methoxyphenyl)propoxy]-4-methoxyphenethyl]-1H-imidazole.HCl], the “murine TRPC6 ion channel block” value (murine TRPC6 ion channel) is listed as “block”, the “receptor-mediated calcium entry (RMCE)” value [1] is listed as “inhibit” and the “Mean fluorescence response calculated as (Max − Min)/Min” value (“Mean fluorescence response calculated” for short) (human TRPC6 ion channel; compound concentration 0.1 μM, carbachol 10 μM) is listed as 1.172. For the same molecule, the “Mean fluorescence response calculated” value (human TRPC6 ion channel; compound concentration 1.0 μM, carbachol 10 μM) was 0.977, the “Mean fluorescence response calculated” value (human TRPC6 ion channel; compound concentration 03 μM (so in the source), carbachol 10 μM) was 1.128 and the “Mean fluorescence response calculated” value (human TRPC6 ion channel; compound concentration 3.0 μM, carbachol 10 μM) was 0.699. For the same molecule, the “Mean fluorescence response calculated” value (human TRPC6 ion channel; compound concentration 10.0 μM, carbachol 10 μM) was 0.278, the “Mean fluorescence response calculated” value (human TRPC6 ion channel; compound concentration 30.0 μM, carbachol 10 μM) was 0.122 and the IC50 (human TRPC6 ion channel; mean±S.E.M. from n=4 experiments, carbachol 10 μM, read-out: calculated mean IC50 value) was 4.9 ± 0.8 µM. The “activity of the human TRPC6 ion channel” value (human TRPC6 ion channel; result in words) was “inhibits”.
